{
  "source": "patent US10912302B2",
  "about": "“Glyphosate salt herbicidal composition” (Monsanto Technology LLC, priority 2004, dated 2021)",
  "origin": "cited, not measured here",
  "details": "25° C.",
  "data": [
    {"smiles": "O=C(O)CNCP(=O)(O)O", "note": "[Glyphosate, glyphosate]", "values": [
      {"measurement": "solubility in water", "result": 1.16, "unit": "% by weight"}
    ]}
  ]
}
